# Laboratory results from patent US20230416245A1, “ADENOSINE ANALOGS FOR THE TREATMENT OF DISEASE” (BIOINTERVENE, INC., priority 2020, published 2023).
# Target: human adenosine A3 receptor (Homo sapiens (Human), UniProt P0DMS8)
# Assay: Adenosine receptor binding assay ([125I]-AB-MECA competition)
# Conditions: inhibition of 0.15 nM [125I]-AB-MECA binding, membranes of cells expressing human A3 receptor; read-out: hA3 Ki: Ki
# Outline: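 Membranes (20 μg) from cells stably expressing human A3 receptor in 50 mM Tris pH 7.4 ± 10 mM MgCl2 with 0.15 nM [125I]-AB-MECA, 120 min at room temperature, filtration and gamma counting. IC50 and Hill slope by Hill-equation fit; Ki via Cheng-Prusoff using the radioligand Kd.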
# Sequence of human adenosine A3 receptor (P0DMS8 whole entry): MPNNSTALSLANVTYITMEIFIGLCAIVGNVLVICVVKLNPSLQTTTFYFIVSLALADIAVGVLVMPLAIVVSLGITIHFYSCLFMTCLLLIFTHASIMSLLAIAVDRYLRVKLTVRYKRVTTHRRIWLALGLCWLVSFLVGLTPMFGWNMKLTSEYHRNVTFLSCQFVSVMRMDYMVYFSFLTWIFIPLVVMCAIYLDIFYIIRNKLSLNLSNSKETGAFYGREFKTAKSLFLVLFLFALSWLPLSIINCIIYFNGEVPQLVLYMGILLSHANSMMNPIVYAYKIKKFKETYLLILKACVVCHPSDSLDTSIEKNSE
row,Compound,Ki [nM]
1,"CCNc1cc(C#CC2CC2)nc2c1ncn2[C@H]1[C@H](O)[C@H](O)[C@@H]2C[C@@H]21 [Compound 46, (1R,2R,3S,4R,5S)-4-(5-(cyclopropylethynyl)-7-(ethylamino)-3H-imidazo[4,5-b]pyridin-3-yl)bicyclo[3.1.0]hexane-2,3-diol]",21.3
2,"O[C@@H]1[C@H](O)[C@@H]2C[C@@H]2[C@H]1n1cnc2c(NCC(F)F)nc(Cl)nc21 [Compound 35, (1R,2R,3S,4R,5S)-4-(2-chloro-6-((2,2-difluoroethyl)amino)-9H-purin-9-yl)bicyclo[3.1.0]hexane-2,3-diol]",1.7
3,"O[C@@H]1[C@H](O)[C@@H]2C[C@@H]2[C@H]1n1cnc2c(NCC(F)F)cc(Cl)nc21 [Compound 40, (1R,2R,3S,4R,5S)-4-(5-chloro-7-((2,2-difluoroethyl)amino)-3H-imidazo[4,5-b]pyridin-3-yl)bicyclo[3.1.0]hexane-2,3-diol]",2
4,"Cc1c(Cl)nc2c(ncn2[C@H]2[C@H](O)[C@H](O)[C@@H]3C[C@@H]32)c1NCC(F)F [Compound 60, (1R,2R,3S,4R,5S)-4-(5-chloro-7-((2,2-difluoroethyl)amino)-6-methyl-3H-imidazo[4,5-b]pyridin-3-yl)bicyclo[3.1.0]hexane-2,3-diol]",> 9400
